Reference: US20220281825A1 (priority 2016, published 2022)

Columns and labels:
TCRV-p = experiment: organism not typed; assay type: cell-based; settings: Vero, 24 h, read-out: TCRV-p EC50 (nM)
VSV-p = experiment: microbe, parasite or virus in culture; assay type: cell-based; settings: Vesicular stomatitis virus, Vero, 24 h, read-out: VSV-p EC50 (nM)
in vitro = settings: African green monkey
JUNV-p = experiment: organism not typed; assay type: cell-based, Junin (JUNV); settings: Vero, 24 h, read-out: JUNV-p EC50 (nM)
LASV-p = experiment: organism not typed; assay type: cell-based, Lassa (LASV); settings: Vero, 24 h, read-out: LASV-p EC50 (nM)
GTOV-p = experiment: organism not typed; assay type: cell-based, Guanarito (GTOV); settings: Vero, 24 h, read-out: GTOV-p EC50 (nM)
MACV-p = experiment: organism not typed; assay type: cell-based, Machupo (MACV); settings: Vero, 24 h, read-out: MACV-p EC50 (nM)
JUNV = experiment: organism not typed; assay type: cell-based, Junin (JUNV); settings: for EC50: 120 h, read-out: JUNV EC50 uM
LCMV = experiment: microbe, parasite or virus in culture; assay type: cell-based, lymphocytic choriomeningitis virus (LCMV); settings: for EC90: Mammarenavirus choriomeningitidis, read-out: LCMV EC90 uM
[1] = system: native replicating Tacaribe (TCRV) virus; experiment: microbe, parasite or virus in culture; assay type: cell-based; settings: for EC50: Mammarenavirus tacaribeense, Vero, 120 h, read-out: TCRV EC50 uM
LASV = experiment: organism not typed; assay type: cell-based, Lassa (LASV); settings: for EC50: 120 h, read-out: LASV EC50 uM
[2] = 1 h, pH 7.4
[3] = guinea pig, 1 h, pH 7.4
[4] = 1 h, pH 7.4; remark: listed apart in the source
hERG channel = hERG channel (Homo sapiens, UniProt Q12809); settings: pH 7.4
hERG channel, sequence (Q12809 whole entry): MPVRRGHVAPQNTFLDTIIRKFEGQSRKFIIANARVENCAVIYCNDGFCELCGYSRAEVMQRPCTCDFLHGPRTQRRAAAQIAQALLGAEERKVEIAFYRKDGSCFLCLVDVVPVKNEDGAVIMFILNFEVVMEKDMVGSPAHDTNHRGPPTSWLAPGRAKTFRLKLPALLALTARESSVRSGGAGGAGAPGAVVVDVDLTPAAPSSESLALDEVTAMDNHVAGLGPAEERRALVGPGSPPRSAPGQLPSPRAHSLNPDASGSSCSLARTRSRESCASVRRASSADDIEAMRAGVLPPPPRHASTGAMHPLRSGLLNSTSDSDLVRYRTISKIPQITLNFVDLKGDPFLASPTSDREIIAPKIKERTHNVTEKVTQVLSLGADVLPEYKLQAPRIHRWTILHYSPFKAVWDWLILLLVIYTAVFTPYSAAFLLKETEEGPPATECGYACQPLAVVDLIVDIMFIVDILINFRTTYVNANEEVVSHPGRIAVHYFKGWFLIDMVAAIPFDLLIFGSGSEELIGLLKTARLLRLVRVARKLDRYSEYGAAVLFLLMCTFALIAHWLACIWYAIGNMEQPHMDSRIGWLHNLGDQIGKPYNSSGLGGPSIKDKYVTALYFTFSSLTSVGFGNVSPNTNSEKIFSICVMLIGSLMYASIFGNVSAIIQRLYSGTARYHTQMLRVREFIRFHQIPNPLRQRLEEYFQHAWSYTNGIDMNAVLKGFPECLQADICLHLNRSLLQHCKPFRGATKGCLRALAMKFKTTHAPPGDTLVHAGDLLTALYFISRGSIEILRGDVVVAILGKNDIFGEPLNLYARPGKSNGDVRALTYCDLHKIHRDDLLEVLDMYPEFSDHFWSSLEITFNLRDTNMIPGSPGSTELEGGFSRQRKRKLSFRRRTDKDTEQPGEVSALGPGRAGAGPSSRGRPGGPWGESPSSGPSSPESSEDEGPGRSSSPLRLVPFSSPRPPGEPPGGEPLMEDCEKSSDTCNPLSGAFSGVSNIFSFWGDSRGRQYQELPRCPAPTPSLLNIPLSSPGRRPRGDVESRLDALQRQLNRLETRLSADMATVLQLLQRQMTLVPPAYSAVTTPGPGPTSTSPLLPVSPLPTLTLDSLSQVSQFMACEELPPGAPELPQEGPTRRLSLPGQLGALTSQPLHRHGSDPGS

[5] = 1 h, pH 7.4; remark: listed apart in the source
[6] = 1 h, pH 7.4; remark: listed apart in the source
[7] = guinea pig, in vivo, 10 mg/kg
in vivo = settings: guinea pig, po, 10 mg/kg

CC(C)Oc1ccc(-n2cnc3ccc(-c4ccc(N(C)C)cc4)cc32)cc1 [Example A18, N,N-dimethyl-4-{1-[4-(propan-2-yloxy)phenyl]-1H-1,3-benzodiazol-6-yl}aniline]
EC50 (TCRV-p): 12.5 nM
EC50 (VSV-p): > 1000 nM
CC50 (in vitro): 14000 nM
EC50 (JUNV-p): 1.55 nM
EC50 (LASV-p): 1.08 nM
EC50 (GTOV-p): 0.07 nM
EC50 (MACV-p): 2.27 nM

CC(C)Oc1ccc(-n2cnc3ccc(-c4ccc5[nH]ccc5c4)cc32)cc1 [Example A24, 6-(1H-indol-5-yl)-1-[4-(propan-2-yloxy)phenyl]-1H-1,3-benzodiazole]
EC50 (TCRV-p): 15.9 nM
CC50 (in vitro): 71300 nM
JUNV SI (JUNV): 53
EC50 (JUNV): 0.56 µM
EC50 (JUNV-p): 1.7 nM
EC50 (LASV-p): 0.91 nM
LCMV SI90 (LCMV): 18
EC90 (LCMV): 0.56 µM
EC50 (GTOV-p): 0.3 nM
TCRV SI50 [1]: 7100
EC50 [1]: 0.01 µM
EC50 (MACV-p): 3.7 nM
LASV SI (LASV): 527
EC50 (LASV): 0.06 µM
Percent parent compound remaining at 60 minutes in liver microsomes, Human [2]: 63%
Percent parent compound remaining at 60 minutes in liver microsomes, Guinea [3]: 0%
Percent parent compound remaining at 60 minutes in liver microsomes, Rat [4]: 32%

Cc1cc2ncn(-c3ccc(OC(C)C)cc3)c2cc1-c1ccc(OC(C)C)cc1 [Example A30, 5-methyl-1,6-bis[4-(propan-2-yloxy)phenyl]-1H-1,3-benzodiazole]
EC50 (TCRV-p): 0.07 nM
EC50 (VSV-p): 5310 nM
CC50 (in vitro): 3670 nM
hERG % Inhibition (hERG channel): <10%
EC50 (JUNV-p): 0.03 nM
EC50 (LASV-p): 0.53 nM
EC50 (GTOV-p): 0.21 nM
EC50 (MACV-p): 0.21 nM

COc1cc2ncn(-c3ccc(OC(C)C)cc3)c2cc1-c1ccc(OC(C)C)cc1 [Example A31, 5-methoxy-1,6-bis[4-(propan-2-yloxy)phenyl]-1H-1,3-benzodiazole]
EC50 (TCRV-p): 0.7 nM
Percent parent compound remaining at 60 minutes in liver microsomes, Monkey [5]: 40%
CC50 (in vitro): 3790 nM
hERG % Inhibition (hERG channel): <10%
EC50 (JUNV-p): 0.18 nM
EC50 (LASV-p): 2.6 nM
EC50 (MACV-p): 0.9 nM
Percent parent compound remaining at 60 minutes in liver microsomes, Human [2]: 93%
Percent parent compound remaining at 60 minutes in liver microsomes, Guinea [3]: 100%

CC(C)Oc1ccc(-n2cnc3ccc(-c4ccc(C(C)(C)O)cc4)nc32)cc1 [Example B1, 2-(4-{3-[4-(propan-2-yloxy)phenyl]-3H-imidazo[4,5-b]pyridin-5-yl}phenyl)propan-2-ol]
EC50 (TCRV-p): 28 nM
EC50 (VSV-p): > 1000 nM
CC50 (in vitro): 12200 nM
EC50 (JUNV-p): 4.95 nM
EC50 (LASV-p): 1.61 nM
EC50 (GTOV-p): 0.88 nM
EC50 (MACV-p): 7.09 nM

CC(C)Oc1ccc(-c2ccc3ncn(-c4ccc(OC(C)C)cc4)c3n2)cc1 [Example B2, 3,5-bis[4-(propan-2-yloxy)phenyl]-3H-imidazo[4,5-b]pyridine]
hERG % Inhibition (hERG channel): <10%

CC(C)Oc1ccc(-c2ccc3nnn(-c4ccc(OC(C)C)cc4)c3c2)cc1 [Example B12, 1,6-bis[4-(propan-2-yloxy)phenyl]-1H-1,2,3-benzotriazole]
hERG % Inhibition (hERG channel): 17%

CC(C)Oc1ccc(-n2nnc3ccc(-c4ccc5[nH]ccc5c4)cc32)cc1 [Example B13, 6-(1H-indol-5-yl)-1-[4-(propan-2-yloxy)phenyl]-1H-1,2,3-benzotriazole]
EC50 (TCRV-p): 20.4 nM
EC50 (VSV-p): 5360 nM
CC50 (in vitro): 6620 nM
EC50 (JUNV-p): 1.8 nM
EC50 (LASV-p): 1.53 nM
EC50 (GTOV-p): 1.24 nM
EC50 (MACV-p): 5.58 nM

Cc1cc2nnn(-c3ccc(OC(C)C)cc3)c2cc1-c1ccc(OC(C)C)cc1 [Example B15, 5-methyl-1,6-bis[4-(propan-2-yloxy)phenyl]-1H-1,2,3-benzotriazole]
EC50 (TCRV-p): 0.37 nM
EC50 (VSV-p): > 10000 nM
CC50 (in vitro): > 100000 nM
hERG % Inhibition (hERG channel): <10%
EC50 (JUNV-p): 0.02 nM
EC50 (LASV-p): 0.95 nM
EC50 (GTOV-p): 0.18 nM
EC50 (MACV-p): 0.25 nM

CC(C)Oc1ccc(-c2cnc3ccc(-c4ccc(C(C)(C)O)cc4)cn23)cc1 [Example C1, 2-(4-{3-[4-(propan-2-yloxy)phenyl]imidazo[1,2-a]pyridin-6-yl}phenyl)propan-2-ol]
EC50 (TCRV-p): 1.45 nM
Percent parent compound remaining at 60 minutes in liver microsomes, Monkey [5]: 16%
EC50 (VSV-p): > 1000 nM
CC50 (in vitro): 7520 nM
JUNV SI (JUNV): 352
EC50 (JUNV): 0.055 µM
hERG % Inhibition (hERG channel): 55%
Percent parent compound remaining at 60 minutes in liver microsomes, Mouse [6]: 22%
EC50 (JUNV-p): 0.82 nM
EC50 (LASV-p): 0.59 nM
LCMV SI90 (LCMV): 37
EC90 (LCMV): 0.82 µM
EC50 (GTOV-p): 0.08 nM
TCRV SI50 [1]: 2500
EC50 [1]: 0.003 µM
EC50 (MACV-p): 0.7 nM
LASV SI (LASV): 921
EC50 (LASV): 0.025 µM
Percent parent compound remaining at 60 minutes in liver microsomes, Human [2]: 76%
Percent parent compound remaining at 60 minutes in liver microsomes, Guinea [3]: 42%
Percent parent compound remaining at 60 minutes in liver microsomes, Rat [4]: 77%

CC(C)Oc1ccc(-c2ccc3ncc(-c4ccc(OC(C)C)cc4)n3c2)cc1 [Example C2, 3,6-bis[4-(propan-2-yloxy)phenyl]imidazo[1,2-a]pyridine]
oral exposure [7]: demonstrated oral exposure
hERG % Inhibition (hERG channel): 89%
Cmax (in vivo): 156 ng/mL
Tmax (in vivo): 1 h

CC(C)Oc1ccc(-c2cnc3ccc(-c4ccc(C5(O)CCC5)cc4)cn23)cc1 [Example C9, 1-(4-{3-[4-(propan-2-yloxy)phenyl]imidazo[1,2-a]pyridin-6-yl}phenyl)cyclobutan-1-ol]
EC50 (TCRV-p): 1.7 nM
EC50 (VSV-p): 5810 nM
CC50 (in vitro): 3970 nM
EC50 (JUNV-p): 0.45 nM
EC50 (LASV-p): 1.15 nM
EC50 (GTOV-p): 0.27 nM
EC50 (MACV-p): 0.71 nM

CC(C)Oc1ccc(-c2cnc3ccc(-c4ccc5cc[nH]c5c4)cn23)cc1 [Example C11, 6-{3-[4-(propan-2-yloxy)phenyl]imidazo[1,2-a]pyridin-6-yl}-1H-indole]
EC50 (TCRV-p): 18.4 nM
EC50 (VSV-p): 3090 nM
CC50 (in vitro): 25200 nM
EC50 (JUNV-p): 3.21 nM
EC50 (LASV-p): 2.83 nM
EC50 (GTOV-p): 0.86 nM
EC50 (MACV-p): 10 nM

CC(C)Oc1ccc(-c2cnc3ccc(-c4ccc(OC(C)C)c(F)c4)cn23)cc1 [Example C24, 6-[3-fluoro-4-(propan-2-yloxy)phenyl]-3-[4-(propan-2-yloxy)phenyl]imidazo[1,2-a]pyridine]
EC50 (TCRV-p): 3.91 nM
EC50 (VSV-p): 9810 nM
CC50 (in vitro): 4180 nM
EC50 (JUNV-p): 0.416 nM
EC50 (LASV-p): 4.58 nM
EC50 (GTOV-p): 0.15 nM
EC50 (MACV-p): 0.875 nM

CC(C)Oc1ccc(-c2cnc3ccc(-c4ccc(C5(O)CC5)cc4)cn23)cc1 [Example C27, 1-(4-{3-[4-(propan-2-yloxy)phenyl]imidazo[1,2-a]pyridin-6-yl}phenyl)cyclopropan-1-ol]
EC50 (TCRV-p): 0.58 nM
EC50 (VSV-p): > 10000 nM
CC50 (in vitro): 5280 nM
EC50 (JUNV-p): 0.51 nM
EC50 (LASV-p): 0.66 nM
EC50 (GTOV-p): 0.24 nM
EC50 (MACV-p): 0.68 nM

CC(C)Oc1ccc(-c2ccc3ncc(-c4ccc(C5CC5)cc4)n3c2)cc1 [Example C30, 3-(4-cyclopropylphenyl)-6-[4-(propan-2-yloxy)phenyl]imidazo[1,2-a]pyridine]
EC50 (TCRV-p): 3.83 nM
EC50 (VSV-p): 6960 nM
CC50 (in vitro): 3980 nM
EC50 (JUNV-p): 0.82 nM
EC50 (LASV-p): 1.02 nM
EC50 (GTOV-p): 0.05 nM
EC50 (MACV-p): 1.08 nM

CC(C)Oc1ccc(-c2ccc3ncc(-c4ccc(OCC5CC5)cc4)n3c2)cc1 [Example C33, 3-[4-(cyclopropylmethoxy)phenyl]-6-[4-(propan-2-yloxy)phenyl]imidazo[1,2a]pyridine]
EC50 (TCRV-p): 6.57 nM
EC50 (VSV-p): 4770 nM
CC50 (in vitro): 4770 nM
EC50 (JUNV-p): 2.3 nM
EC50 (LASV-p): 1.3 nM
EC50 (GTOV-p): 0.91 nM
EC50 (MACV-p): 5.31 nM

CC(C)Oc1ccc(-c2ccc3ncc(-c4ccc(OC(F)F)cc4)n3c2)cc1 [Example C40, 3-[4-(difluoromethoxy)phenyl]-6-[4-(propan-2-yloxy)phenyl]imidazo[1,2a]pyridine]
EC50 (TCRV-p): 22.6 nM
EC50 (VSV-p): 6170 nM
CC50 (in vitro): 4110 nM
EC50 (JUNV-p): 0.97 nM
EC50 (LASV-p): 3.83 nM
EC50 (GTOV-p): 1.35 nM
EC50 (MACV-p): 5.85 nM

c1cc(-c2ccc3ncc(-c4ccc(OC5CC5)cc4)n3c2)ccc1OC1CC1 [Example C46, 3,6-bis(4-cyclopropoxyphenyl)imidazo[1,2-a]pyridine]
EC50 (TCRV-p): 22.5 nM
EC50 (VSV-p): 4550 nM
CC50 (in vitro): 4610 nM
EC50 (JUNV-p): 4.42 nM
EC50 (LASV-p): 7.23 nM
EC50 (GTOV-p): 1.26 nM
EC50 (MACV-p): 8.47 nM

OC1(c2ccc(-c3ccc4ncc(-c5ccc(C6(O)CCC6)cc5)n4c3)cc2)CCC1 [Example C47, 1-(4-{3-[4-(1-hydroxycyclobutyl)phenyl]imidazo[1,2-a]pyridin-6-yl}phenyl)cyclobutan-1-ol]
EC50 (TCRV-p): 1.17 nM
EC50 (VSV-p): 4340 nM
CC50 (in vitro): 7860 nM
EC50 (JUNV-p): 0.55 nM
EC50 (LASV-p): 1.8 nM
EC50 (GTOV-p): 0.44 nM
EC50 (MACV-p): 0.5 nM
